Measured values reported in ChEMBL document CHEMBL3259640 (J Med Chem, 2014).
pIC50: −log10 of the molar value. Converted amounts (≈) assume the structure as drawn.

Assays:
K562 = assay: Antiproliferative activity against human K562 cells assessed as cell viability after 96 hrs by CellTiter96 assay; type: functional, cell-based; conditions: K562, 96 h
HeLa = assay: Antiproliferative activity against human HeLa cells assessed as cell viability after 96 hrs by CellTiter96 assay; type: functional, cell-based
MDA-MB-231 = assay: Antiproliferative activity against human MDA-MB-231 cells assessed as cell viability after 96 hrs by CellTiter96 assay; type: functional, cell-based; conditions: MDA-MB-231, 96 h
MDA-MB-468 = assay: Antiproliferative activity against human MDA-MB-468 cells assessed as cell viability after 96 hrs by CellTiter96 assay; type: functional, cell-based; conditions: MDA-MB-468, 96 h
[1] = Solubility of the compound in phosphate buffered saline containing 1% DMSO at pH 7.4 after 2 hrs by HPLC analysis; type: physicochemical

| Structure (SMILES) | pIC50 (K562) | pIC50 (HeLa) | pIC50 (MDA-MB-231) | pIC50 (MDA-MB-468) | solubility kinetic at 2 h [1] [µM] |
| --- | --- | --- | --- | --- | --- |
| COc1ccc(Oc2cc(C)c(-c3csc(NC(=O)c4ccncc4)n3)c(C)c2)cc1 | 7.46 | 7.31 | 7.49 | 7.43 |  |
| Cc1cc(C)c(-c2csc(NC(=O)c3ccccc3)n2)c(C)c1 | 5.49 | 5.44 | 5.49 | 5.66 |  |
| Cc1cc(Oc2ccc3c(c2)OCO3)cc(C)c1-c1csc(NC(=O)c2ccncc2)n1 | 7.34 | 6.97 | 7.17 | 6.89 |  |
| Cc1cc(C)c(-c2csc(NC(=O)Cc3ccncc3)n2)c(C)c1 | 6.42 | 6.21 | 6.51 | 6.52 |  |
| Cc1cc(C)c(-c2csc(NC(=O)c3ccncc3)n2)c(C)c1 |  |  |  |  | 3.33 (≈ 1.08 µg/mL) |
